How the values were obtained:
Assay type in all cases: in vivo, human
oxygen sensors = assay: placebo-controlled double-blind study: isocapnic hypoxic ventilatory response
Protocol: The placebo-controlled double-blind study was performed with healthy, normotonic male non-smoking subjects. The subjects had not taken alcohol, caffeine, or any medication at least during the last 24 hours prior to the study. Also, they had not been engaged in extensive physical exercise for at least 12 hours prior to the study. Twenty-eight subjects were recruited into the study and randomized for the treatment with NAC or placebo. NAC (200 mg capsules) or placebo were administered in three doses of 600 mg per day at 8.00 a.m., 4.00 p.m. and 11.00 p.m. In addition, the hypoxic ventilatory response of the subjects was quantitatively determined. The ventilatory activity was determined under two different experimental conditions using an equipment of oxychon-beta. The first measurement, the so-called “isocapnic hypoxic ventilatory response” (isocapnic HVR), was tested under normoxic conditions, i.e., under conditions of normal oxygen concentration and constant carbon dioxide concentration. The second measurement, the so-called poikilocapnic hypoxic ventilatory response (poikilocapnic HVR), was determined under normobaric conditions in a hypoxia chamber with a constant FiO2 of 12%. The term “poikilocapnic” describes study conditions characterized by a variable carbon dioxide concentration in the expiratory air, whereas the term “isocapnic” refers to conditions with a constant carbon dioxide concentration.

erythropoietin (EPO) = assay: placebo-controlled double-blind study: EPO concentration by EPO ELISA kit
Protocol: (§1) The placebo-controlled double-blind study was performed with healthy, normotonic male non-smoking subjects. The subjects had not taken alcohol, caffeine, or any medication at least during the last 24 hours prior to the study. Also, they had not been engaged in extensive physical exercise for at least 12 hours prior to the study. Twenty-eight subjects were recruited into the study and randomized for the treatment with NAC or placebo. NAC (200 mg capsules) or placebo were administered in three doses of 600 mg per day at 8.00 a.m., 4.00 p.m. and 11.00 p.m. The plasma concentrations of acid soluble thiol (mainly cysteine) and cystine (cysteine disulfide) were determined in the cubital venous blood by a photometric assay and by the amino acid analyzer, respectively. […] The EPO concentration in serum was determined by the help of a commercial EPO ELISA kit.

[1] = placebo-controlled double-blind study: plasma acid soluble thiol and thiol/disulfide redox status; conditions: healthy male subjects, NAC three doses of 600 mg per day, vs placebo-treated group
Protocol: as §1

[2] = summary statement of the placebo-controlled double-blind study

## CC(=O)N[C@@H](CS)C(=O)O [NAC, N-acetylcysteine]
Oxygen sensors; before vs 4 days after start of treatment, P value <0.01 (FIG. 2)
  increase in ventilatory activity (H, isocapnic hypoxic ventilatory response) between time 1 and time 2: significantly different from that of the placebo-treated control group
Oxygen sensors; healthy male subjects, NAC three doses of 600 mg per day, vs placebo-treated group (FIG. 1)
  isocapnic hypoxic ventilatory response (H), relative change: significantly increased
Oxygen sensors; [2]
  ventilatory activity: increase
Erythropoietin (EPO); 2 hrs after the 6-hr-exposure to the hypoxia chamber, vs placebo-treated group, P<0.05 (FIG. 1)
  plasma EPO concentration after exposure to the hypoxia chamber (Eh), relative change: increased
Erythropoietin (EPO); before exposure to the hypoxia chamber, vs placebo-treated group, P<0.05 (FIG. 1)
  plasma EPO concentration (E), relative change: increased
Erythropoietin (EPO); before vs 5 days after start of treatment, P value <0.05 (FIG. 2)
  increase in plasma EPO concentration (E) between time 1 and time 2: significantly different from that of the placebo-treated control group
Erythropoietin (EPO); [2]
  plasma erythropietin concentration: increase
[1]; P<0.01 (FIG. 1)
  plasma thiol concentration (T), relative change: significantly increased
[1]; P<0.05 (FIG. 1)
  plasma thiol/disulfide redox status (thiol^2 disulfide^−1), relative change: increased

Reference: patent US20110237672A1, “Use of a cysteine-containing substance to increase the ventilatory activity and erythropoietin production” (2458781 CANADA INC., priority 2001, published 2011)
